According to patent US7824698B2, “Lyophilized formulations of Salinosporamide A” (Nereus Pharmaceuticals, Inc., priority 2007, dated 2010):
Values after ≈ are worked out from the molar mass of the structure shown.

Assays:
[1] = Solubility and stability in tert-butanol and Kollidon-TBA vehicles by HPLC; format: physicochemical
Protocol: Salinosporamide A solubility was determined in 100% tert-butanol (TBA) and in TBA containing 3% (w/v) Kollidon 12 PF and 3% (w/v) Kollidon 17 PF, respectively. Both Kollidons can dissolve in TBA at approximately 4% (w/v). 3% Kollidon can serve as the bulking agent to support a lyophilization preparation. Salinosporamide A was added and saturated in the vehicles at ambient room temperature overnight. Salinosporamide A solutions were filtered and analyzed by HPLC to determine the solubility.

[2] = Salinosporamide A in-situ phase solubility and stability in H2O-TBA; format: physicochemical; settings: for HPLC Assay (% Purity): room temp.
Protocol: Salinosporamide A in-situ phase solubility and stability were determined in 10, 20 and 30% H2O-TBA (v/v) solutions. Salinosporamide A was prepared at 2 mg/mL in TBA as a stock solution. HPLC water was spiked into the Salinosporamide A solution aliquot to make up the equivalent 10, 20 and 30% H2O-TBA solutions at room temperature. Each drug solution was mixed and immediately filtered. The filtrate was collected as time zero sample and analyzed by HPLC at real time to avoid drug degradation. The filtrate was subsequently sampled and filtered at 4, 24 and 48 hr to monitor drug stability at ambient room temperature.

[3] = Chemical stability of the API

SMILES: C[C@@]12OC(=O)[C@]1([C@@H](O)[C@@H]1C=CCCC1)NC(=O)[C@@H]2CCCl [Salinosporamide A]
- solubility ([1]; 3% Kollidon 12 PF-TBA): 4900 µg/mL (≈ 15.6 mM)
- stability in solution ([1]; 3% Kollidon 12 PF-TBA and 3% Kollidon 17 PF-TBA, room temperature overnight): stable
- solubility ([1]; 3% Kollidon 17 PF-TBA): 4200 µg/mL (≈ 13.4 mM)
- solubility ([1]; 100% TBA, ambient room temperature): 2000 µg/mL (≈ 6.37 mM)
- stability in solution ([1]; 100% TBA, ambient room temperature overnight): stable
- bulk solution stability ([2]; 1 mg/mL in 10-30% H2O-TBA co-solvent systems, room temperature): stable
- HPLC Assay (% Purity) ([2]; 10% H2O-TBA, 0 hr): 100.0%
- HPLC Assay (% Purity) ([2]; 10% H2O-TBA, 4 hr): 99.5%
- HPLC Assay (% Purity) ([2]; 10% H2O-TBA, 24 hr): 99.8%
- HPLC Assay (% Purity) ([2]; 10% H2O-TBA, 48 hr): 99.7%
- HPLC Assay (% Purity) ([2]; 20% H2O-TBA, 0 hr): 100.0%
- HPLC Assay (% Purity) ([2]; 20% H2O-TBA, 4 hr): 99.8%
- HPLC Assay (% Purity) ([2]; 20% H2O-TBA, 24 hr): 99.8%
- HPLC Assay (% Purity) ([2]; 20% H2O-TBA, 48 hr): 99.7%
- HPLC Assay (% Purity) ([2]; 30% H2O-TBA, 0 hr): 100.0%
- HPLC Assay (% Purity) ([2]; 30% H2O-TBA, 4 hr): 99.8%
- HPLC Assay (% Purity) ([2]; 30% H2O-TBA, 24 hr): 99.5%
- HPLC Assay (% Purity) ([2]; 30% H2O-TBA, 48 hr): 99.3%
- stability in aqueous solution ([3]; neutral and basic pH values): labile
- time API is stable ([3]; stored at −20° C. desiccated): at least 12 months
